# Results from patent US20060154984A1, “Therapeutic use of acyl glycerols and the nitrogen- and sulphur- containing analogues thereof” (priority 2003, published 2006).
# Key:
# PPARα = target: T1, PPARα (Homo sapiens, UniProt Q07869); assay: Gal4/PPARα transactivation system in HepG2 cells (luciferase reporter); format: cell-based; settings: HepG2 cells transfected with Gal4/PPARα plasmids, 24 h
# T1 construct: expressed in transfected cells; host or cells: HepG2
# T1 sequence (Q07869 239-466 limits assumed): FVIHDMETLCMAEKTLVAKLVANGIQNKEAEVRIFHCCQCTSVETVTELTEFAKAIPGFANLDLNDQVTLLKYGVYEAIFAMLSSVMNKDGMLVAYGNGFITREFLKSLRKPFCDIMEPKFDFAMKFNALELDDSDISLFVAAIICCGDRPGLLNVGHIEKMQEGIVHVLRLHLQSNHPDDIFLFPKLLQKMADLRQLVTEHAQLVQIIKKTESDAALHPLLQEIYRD
# Protocol: PPAR activation was tested in vitro in RK13 fibroblast cell lines or in a hepatocyte line HepG2 by measuring the transcriptional activity of chimeras composed of the DNA binding domain of the yeast gal4 transcription factor and the ligand binding domain of the different PPARs. The example below is given for HepG2 cells.
# HepG2 cells were from ECACC (Porton Down, UK) and were grown in DMEM medium supplemented with 10% (VN) fetal calf serum, 100 U/ml penicillin (Gibco, Paisley, UK) and 2 mM L-glutamine (Gibco, Paisley, UK). The culture medium was changed every two days. Cells were kept at 37° C. in a humidified 95% air/5% CO2 atmosphere.
# The plasmids pG5TkpGL3, PRL-CMV, pGal4-hPPARα, pGal4-hPPARγ and pGal4-f have been described by Raspe et al. (Raspe, Madsen et al. 1999). The pGal4-mPPARα and pGal4-hPPARβ constructs were obtained by cloning PCR-amplified DNA fragments corresponding to the DEF domains of the mouse PPARα and […] nuclear receptors, respectively, into the pGal4-f vector.
# HepG2 cells were seeded in 24-well culture dishes at 5×10^4 cells/well and transfected for 2 hours with the reporter plasmid pG5TkpGL3 (50 ng/well), the expression vectors pGal4-f, pGal4-mPPARα, pGal4-hPPARα, pGal4-hPPARγ, or pGal4-hPPARβ (100 ng/well) and the transfection efficiency control vector pRL-CMV (1 ng/well) according to the previously described protocol (Raspe, Madsen et al. 1999), then incubated for 36 hours with the test compounds. At the end of the experiment, the cells were lysed (Gibco, Paisley, UK) and luciferase activity was determined with a Dual-Luciferase™ Reporter Assay System kit (Promega, Madison, Wis., USA) according to the supplier's instructions. The protein content of the cell extracts was then measured with the Bio-Rad Protein Assay kit (Bio-Rad, Munich, Germany) as directed by the supplier. […] FIG. 3 gives an example of the results obtained with the inventive compounds.
# FIG. 3: HepG2 cells transfected with Gal4/PPARα plasmids were incubated with different concentrations (5, 15, 50 and 100 μM) of the inventive comopunds (Ex 2a, Ex 4a, Ex 4p, Ex 5a, Ex 7 and Ex 11) for 24 h and with different concentrations of the vehicle (PC) noted 1, 2, 3, 4 as controls for the 5, 15, 50 and 100 μM concentrations of the inventive compounds (according to the 4:1 (m/m) ratio described in example 2 (Method of preparation of the inventive compounds for in vitro studies)). The results are expressed as the induction factor (luminescent signal of treated cells divided by luminescent signal of untreated cells) after the different treatments. […] The induction factors for inventive compound Ex 4p were 35 at 100 μM, 44 at 50 μM, 36 at 15 μM and 24 at 5 μM. The induction factors for compound Ex 5a were 32 at 100 μM, 34 at 50 μM, 15 at 15 μM and 4 at 5 μM. Finally, inventive compound Ex 7 induced a 19-fold induction at 100 μM, 19 at 50 μM, 7 at 15 μM and 1.5 at 5 μM. In contrast, when the cells were incubated with the vehicle (PC liposome), no significant induction was observed.
# [1] = tested on: 6-OHDA-induced dopaminergic lesion; assay: Rat model of Parkinson's disease (6-OHDA), behavioral sensitization to apomorphine; format: in vivo; settings: Wistar rats, 300 mg/kg per day in diet, 7 days before and 15 days after 6-OHDA lesion
# Protocol: (§1) Adult male Wistar rats (280-300 g) were maintained on a 12-hour light/dark cycle at a constant temperature of 20±3° C. Animals had access to food and water ad libitum and weight gain was recorded.
# (§2) Animals were fed a normal diet or a diet supplemented with the inventive compounds (300 mg/kg per day) for 7 days before induction of the dopaminergic lesion and for 15 days after induction of same.
# 6-hydroxydopamine (6-OHDA) is a neurotoxin taken up by dopaminergic neurons via a dopamine transporter. Injection of said compound into striatonigral projections induces selective destruction of dopaminergic neurons, and has allowed the development of many animal models of Parkinson's disease (Bordet et al., 2000).
# (§3) Seven days after commencement of treatment with the inventive compounds, the rats were stereotactically injected with 6-OHDA (4 μg for 8 min) or buffer (sham rats) in the left part of the median tract of the telencephalon to induce striatonigral denervation.
# Apomorphine is a dopaminergic agonist which stimulates D1 and D2 receptors. The intensity of rotational behavior is an index allowing to measure the severity of the striatonigral lesion. At the end of the treatment, rats received an intraperitoneal injection of apomorphine and rotational behavior was evaluated 15 minutes after sensitization and for a 10 minute period.
# dopaminergic neurons = assay: Rat model of Parkinson's disease (6-OHDA), immunohistochemistry with anti-TH antibody; format: in vivo; settings: Wistar rats, 300 mg/kg per day in diet, 6-OHDA lesion; versus rats fed a normal diet
# Protocol: as §1, §2, §3
# Tyrosine hydroxylase (TH) is an enzyme which catalyzes the transformation of tyrosine to […]. It is used to label dopaminergic neurons. After the apomorphine sensitization test, the animals were sacrificed and the brains were removed. Brain slices were incubated with anti-TH antibody (SCBT, Santa Cruz, Calif.) and then with a second biotinylated antibody. Visualization was with the ABC staining system kit (Tebu) according to the supplier's instructions.
# Viable cells labelled with anti-TH antibody (TH+ cells) were counted. […]
smiles,measurement,setting,value
"CCCCCCCCCCCCCCSCC(=O)OCC(COC(=O)CSCCCCCCCCCCCCCC)OC(=O)CSCCCCCCCCCCCCCC [Ex 4a, 1,2,3-tritetradecylthioacetylglycerol]",induction factor (luminescent signal of treated cells divided by luminescent signal of untreated cells),PPARα; 5 μM,6 fold
same,induction factor (luminescent signal of treated cells divided by luminescent signal of untreated cells),PPARα; 15 μM,15 fold
same,induction factor (luminescent signal of treated cells divided by luminescent signal of untreated cells),PPARα; 50 μM,23 fold
same,induction factor (luminescent signal of treated cells divided by luminescent signal of untreated cells),PPARα; 100 μM,33 fold
same,number of apomorphine-induced rotations,[1],prophylactic and curative properties
same,number of neurons labelled with anti-tyrosine hydroxylase (TH+ neurons),dopaminergic neurons,greater number of neurons
